{
  "source": "patent US20100204224A1",
  "about": "“AZACYCLIC COMPOUNDS AS INHIBITORS OF SENSORY NEURONE SPECIFIC SODIUM CHANNELS” (priority 2005, published 2010)",
  "data": [
    {"biological_target": "T1, human Nav1.8 (hNav1.8) ion channel (Homo sapiens, UniProt Q9Y5Y9)", "T1 construct": "expressed in transfected cells", "T1 sequence (Q9Y5Y9 whole entry)": "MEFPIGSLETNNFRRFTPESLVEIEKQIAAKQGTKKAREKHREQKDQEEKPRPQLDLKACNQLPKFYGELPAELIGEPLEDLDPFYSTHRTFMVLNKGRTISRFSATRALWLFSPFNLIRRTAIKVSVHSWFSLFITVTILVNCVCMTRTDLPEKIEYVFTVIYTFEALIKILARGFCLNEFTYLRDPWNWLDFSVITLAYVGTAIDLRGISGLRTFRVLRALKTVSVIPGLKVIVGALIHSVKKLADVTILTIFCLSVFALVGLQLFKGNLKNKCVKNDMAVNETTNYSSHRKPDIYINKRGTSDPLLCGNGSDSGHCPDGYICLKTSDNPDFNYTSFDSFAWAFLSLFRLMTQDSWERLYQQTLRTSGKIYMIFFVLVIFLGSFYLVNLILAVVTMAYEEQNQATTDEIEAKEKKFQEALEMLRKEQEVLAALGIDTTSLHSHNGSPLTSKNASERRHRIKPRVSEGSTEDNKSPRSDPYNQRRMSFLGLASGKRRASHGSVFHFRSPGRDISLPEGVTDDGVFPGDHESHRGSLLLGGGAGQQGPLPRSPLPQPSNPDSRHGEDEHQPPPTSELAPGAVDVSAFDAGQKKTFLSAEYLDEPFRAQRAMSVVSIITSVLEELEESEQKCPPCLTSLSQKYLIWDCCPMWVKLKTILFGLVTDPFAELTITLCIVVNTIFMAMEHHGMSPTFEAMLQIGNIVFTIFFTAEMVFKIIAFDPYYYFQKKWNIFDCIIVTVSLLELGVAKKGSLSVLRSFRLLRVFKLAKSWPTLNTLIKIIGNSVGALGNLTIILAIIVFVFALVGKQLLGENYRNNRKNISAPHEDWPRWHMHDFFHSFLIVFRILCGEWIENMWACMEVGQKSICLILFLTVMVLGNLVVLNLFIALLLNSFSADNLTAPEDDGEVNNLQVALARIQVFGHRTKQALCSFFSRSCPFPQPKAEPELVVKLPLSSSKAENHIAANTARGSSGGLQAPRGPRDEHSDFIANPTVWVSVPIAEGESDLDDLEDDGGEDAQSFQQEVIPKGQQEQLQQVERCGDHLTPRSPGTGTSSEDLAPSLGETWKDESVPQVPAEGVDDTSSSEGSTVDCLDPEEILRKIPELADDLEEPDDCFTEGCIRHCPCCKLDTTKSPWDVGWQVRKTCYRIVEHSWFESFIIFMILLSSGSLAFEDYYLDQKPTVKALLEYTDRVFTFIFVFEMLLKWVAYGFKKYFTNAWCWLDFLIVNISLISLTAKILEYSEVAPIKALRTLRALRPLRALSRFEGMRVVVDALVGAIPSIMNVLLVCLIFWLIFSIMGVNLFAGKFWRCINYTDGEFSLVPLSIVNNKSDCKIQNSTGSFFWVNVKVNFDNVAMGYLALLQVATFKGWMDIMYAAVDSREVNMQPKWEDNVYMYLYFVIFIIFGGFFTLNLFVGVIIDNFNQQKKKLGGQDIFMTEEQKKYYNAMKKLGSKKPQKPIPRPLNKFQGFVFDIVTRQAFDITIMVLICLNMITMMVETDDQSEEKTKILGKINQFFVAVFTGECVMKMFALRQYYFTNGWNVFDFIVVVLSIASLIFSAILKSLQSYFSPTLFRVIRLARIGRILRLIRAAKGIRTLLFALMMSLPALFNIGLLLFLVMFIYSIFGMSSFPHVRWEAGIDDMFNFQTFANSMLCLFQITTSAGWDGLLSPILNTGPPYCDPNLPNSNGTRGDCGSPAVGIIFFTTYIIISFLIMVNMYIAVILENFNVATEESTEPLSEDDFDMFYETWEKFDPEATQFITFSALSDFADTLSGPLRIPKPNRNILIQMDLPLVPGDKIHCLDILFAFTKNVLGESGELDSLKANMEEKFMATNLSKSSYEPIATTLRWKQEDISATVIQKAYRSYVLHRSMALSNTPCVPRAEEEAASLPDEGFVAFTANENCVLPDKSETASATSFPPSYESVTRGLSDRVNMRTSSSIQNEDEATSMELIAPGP", "assay": "Inhibition of human Nav1.8 stably expressed in SH-SY-5Y cells (membrane potential dye fluorescence assay)", "format": "cell-based", "details": "SH-SY-5Y hNav1.8 cells; FLIPR membrane potential dye; 10 μM pyrethroid, 250 nM TTX; test concentration range 100 μM-0.05 μM; read-out: hNav1.8 IC50", "method": "(§1) Inhibition of Human Nav1.8 stably expressed in SH-SY-5Y Cells\n(§2) A SH-SY-5Y neuroblastoma cell line stably expressing the human Nav1.8 (hNav1.8) ion channel was constructed. This cell line has been used to develop a medium to high throughput assay for determining the ability of test compounds to inhibit membrane depolarisation mediated via the hNav1.8 channel.\n(§3) SH-SY-5Y hNav1.8 are grown in adherent monolayer culture using 50:50 Ham's F-12/EMEM tissue culture medium supplemented with 15% (v/v) foetal bovine serum; 2 mM L-glutamine, 1% NEAR and 600 μg·ml^−1 Geneticin sulphate. Cells are removed from the tissue culture flask using trypsin/EDTA and re-plated into black walled, clear bottom 96-well assay plates at 50,000 cells·well^−1 24 hours prior to assay.\n(§4) On the day of assay the cell assay plates are washed to remove cell culture medium using a sodium free assay buffer (145 mM tetramethyl ammonium chloride; 2 mM calcium chloride; 0.8 mM magnesium chloride hexahydrate; 10 mM HEPES; 10 mM glucose; 5 mM potassium chloride, pH 7.4). Fluorescent membrane potential dye solution (FLIPR™ membrane potential dye, Molecular Devices Corporation), containing 10 μM of a pyrethroid to prevent channel inactivation and 250 nM tetrodotoxin (TTX) to reduce interference from TTX-sensitive sodium channels present in the cell line. Test compound, initially dissolved in dimethyl sulfoxide but further diluted in sodium free buffer, is added to achieve the final test concentration range of 100 μM-0.05 μM.\n(§5) Cell plates are incubated for 30 minutes at room temperature to allow equilibration of dye and test compound. Plates are then transferred to a fluorescence plate reader for fluorescence measurement using an excitation wavelength of 530 nm whilst measuring fluorescence emission at 565 nm. Baseline fluorescence levels are first determined before the addition of a sodium containing buffer (220 mM sodium chloride; 2 mM calcium chloride; 0.8 mM magnesium chloride hexahydrate; 10 mM HEPES; 10 mM glucose; 5 mM potassium chloride. pH 7.4) to cause membrane depolarisation in those cells where channel block has not been effected (final sodium concentration=72.5 mM). Membrane depolarisation is registered by an increase in fluorescence emission at 565 nm.\n(§6) The change in fluorescence seen in each test well upon the addition of sodium containing buffer is calculated relative to the baseline fluorescence for that well. This figure is then used for calculating the IC50 for each test compound.", "units": {"IC50": "nM"}, "values": [
      {"smiles": "CC(c1ccccc1Br)N1CC2CC1CN2C(=O)c1ccc(Oc2ccccc2)cc1", "note": "(centres unmarked) [Example 159, {5-[1-(2-Bromo-phenyl)-ethyl]-2,5-diaza-bicyclo[2.2.1]hept-2-yl}-(4-phenoxy-phenyl)-methanone]", "IC50": 14800},
      {"smiles": "CC(c1ccc(C#N)cc1)N1CC2CC1CN2C(=O)Nc1ccc(Oc2ccc(F)cc2)cc1", "note": "(centres unmarked) [Example 91, 5-[1-(4-Cyano-phenyl)-ethyl]-2,5-diaza-bicyclo[2.2.1]heptane-2-carboxylic acid [4-(4-fluoro-phenoxy)-phenyl]-amide]", "IC50": 1050},
      {"smiles": "O=C(Nc1ccc(Oc2ccc(F)cc2)cc1)N1CC2CC1CN2C1CCc2cc(F)ccc21", "note": "(centres unmarked) [Example 93, 5-(5-Fluoro-indan-1-yl)-2,5-diaza-bicyclo[2.2.1]heptane-2-carboxylic acid [4-(4-fluoro-phenoxy)-phenyl]-amide]", "IC50": 310},
      {"smiles": "CC(c1ccccc1Cl)N1CC2CC1CN2C(=O)Nc1ccc(Oc2ccc(Cl)cc2)cc1", "note": "(centres unmarked) [Example 129, 5-[1-(2-Chloro-phenyl)-ethyl]-2,5-diaza-bicyclo[2.2.1]heptane-2-carboxylic acid [4-(4-chloro-phenoxy)-phenyl]-amide]", "IC50": 3800},
      {"smiles": "Cc1ccccc1C(C)N1CC2CC1CN2C(=O)Nc1ccc(OCCn2ccnc2)cc1", "note": "(centres unmarked) [Example 43, 5-(1-o-Tolyl-ethyl)-2,5-diaza-bicyclo[2.2.1]heptane-2-carboxylic acid [4-(2-imidazol-1-yl-ethoxy)-phenyl]-amide]", "IC50": "≥ 30000"},
      {"smiles": "O=C(Nc1ccc(Oc2ccc(F)cc2)cc1)N1CC2CN(Cc3ccccc3)CC2C1", "note": "(centres unmarked) [Example 98, 5-Benzyl-hexahydro-pyrrolo[3,4-c]pyrrole-2-carboxylic acid [4-(4-fluoro-phenoxy)-phenyl]-amide]", "IC50": 170},
      {"smiles": "CC(c1ccc(F)cc1)N1CC2CC1CN2C(=O)Nc1cccc(C(F)(F)F)c1", "note": "(centres unmarked) [Example 50, 5-[1-(4-Fluoro-phenyl)-ethyl]-2,5-diaza-bicyclo[2.2.1]heptane-2-carboxylic acid (3-trifluoromethyl-phenyl)-amide]", "IC50": 2620},
      {"smiles": "CC(c1ccc(F)cc1)N1CC2CC1CN2C(=O)Nc1cccc(Oc2ccccc2)c1", "note": "(centres unmarked) [Example 49, 5-[1-(4-Fluoro-phenyl)-ethyl]-2,5-diaza-bicyclo[2.2.1]heptane-2-carboxylic acid (3-phenoxy-phenyl)-amide]", "IC50": 1080},
      {"smiles": "CC(c1ccccc1Cl)N1CC2CC1CN2C(=O)N(C)c1ccc(Oc2ccc(F)cc2)cc1", "note": "(centres unmarked) [Example 115, 5-[1-(2-Chloro-phenyl)-ethyl]-2,5-diaza-bicyclo[2.2.1]heptane-2-carboxylic acid [4-(4-fluoro-phenoxy)-phenyl]-methyl-amide]", "IC50": 1980},
      {"smiles": "Cc1ccccc1C(C)N1CC2CC1CN2C(=O)Nc1ccc(OCCN(C)C)cc1", "note": "(centres unmarked) [Example 21, 5-(1-o-Tolyl-ethyl)-2,5-diaza-bicyclo[2.2.1]heptane-2-carboxylic acid [4-(2-dimethylamino-ethoxy)-phenyl]-amide]", "IC50": 28300},
      {"smiles": "O=C(NCc1ccc(Oc2ccccc2)cc1)N1CC2CC1CN2C1Cc2ccc(F)cc2C1", "note": "(centres unmarked) [Example 145, 5-(5-Fluoro-indan-2-yl)-2,5-diaza-bicyclo[2.2.1]heptane-2-carboxylic acid 4-phenoxy-benzylamide]", "IC50": 1440},
      {"smiles": "Cc1cc(F)ccc1C(C)N1CC2CC1CN2C(=O)Nc1ccc(C(=O)c2ccccc2)cc1", "note": "(centres unmarked) [Example 71, 5-[1-(4-Fluoro-2-methyl-phenyl)-ethyl]-2,5-diaza-bicyclo[2.2.1]heptane-2-carboxylic acid (4-benzoyl-phenyl)-amide]", "IC50": 2360},
      {"smiles": "CC(c1ccccc1Cl)N1CC2CC1CN2C(=O)c1ccc(Oc2cccc(F)c2)cc1", "note": "(centres unmarked) [Example 175, {5-[1-(2-Chloro-phenyl)-ethyl]-2,5-diaza-bicyclo[2.2.1]hept-2-yl}-[4-(3-fluoro-phenoxy)-phenyl]-methanone]", "IC50": 640},
      {"smiles": "CC(Cc1ccc(F)cc1)N1CC2CC1CN2C(=O)Nc1ccc(C(F)(F)F)cc1", "note": "(centres unmarked) [Example 80, 5-[2-(4-Fluoro-phenyl)-1-methyl-ethyl]-2,5-diaza-bicyclo[2.2.1]heptane-2-carboxylic acid (4-trifluoromethyl-phenyl)-amide]", "IC50": 490},
      {"smiles": "CC(c1ccccc1Cl)N1CC2CC1CN2C(=O)Nc1ccc(Oc2ccccc2)cc1", "note": "(single isomer, unassigned) [Example 11, 5-[1-(2-Chloro-phenyl)-ethyl]-2,5-diaza-bicyclo[2.2.1]heptane-2-carboxylic acid (4-phenoxy-phenyl)-amide]", "IC50": 1800},
      {"smiles": "CCCCOc1ccc(NC(=O)N2CC3CC2CN3C(C)c2ccccc2C)cc1", "note": "(centres unmarked) [Example 5, 5-(1-o-Tolyl-ethyl)-2,5-diaza-bicyclo[2.2.1]heptane-2-carboxylic acid (4-butoxy-phenyl)-amide]", "IC50": 570},
      {"smiles": "Cc1ccccc1CC(C)N1CC2CC1CN2C(=O)Nc1cccc(C(F)(F)F)c1", "note": "(centres unmarked) [Example 67, 5-(1-Methyl-2-o-tolyl-ethyl)-2,5-diaza-bicyclo[2.2.1]heptane-2-carboxylic acid (3-trifluoromethyl-phenyl)-amide]", "IC50": 1220},
      {"smiles": "Cc1ccccc1C(C)N1CC2CC1CN2C(=O)Nc1ccc(Oc2ccccc2)cc1", "note": "(centres unmarked) [Example 30, 5-(1-o-Tolyl-ethyl)-2,5-diaza-bicyclo[2.2.1]heptane-2-carboxylic acid (4-phenoxy-phenyl)-amide]", "IC50": 320},
      {"smiles": "Cc1ccccc1C(C)N1CC2CC1CN2C(=O)Nc1ccc(OCc2ccccc2)cc1", "note": "(centres unmarked) [Example 31, 5-(1-o-Tolyl-ethyl)-2,5-diaza-bicyclo[2.2.1]heptane-2-carboxylic acid (4-benzyloxy-phenyl)-amide]", "IC50": 600},
      {"smiles": "O=C(Nc1ccc(Oc2ccc(F)cc2)cc1)N1CC2CC1CN2C1CCc2cc(F)ccc2C1", "note": "(centres unmarked) [Example 102, 5-(6-Fluoro-1,2,3,4-tetrahydro-naphthalen-2-yl)-2,5-diaza-bicyclo[2.2.1]heptane-2-carboxylic acid [4-(4-fluoro-phenoxy)-phenyl]-amide]", "IC50": 710},
      {"smiles": "CCOCCOc1ccc(NC(=O)N2CC3CC2CN3C(C)c2ccccc2C)cc1", "note": "(centres unmarked) [Example 17, 5-(1-o-Tolyl-ethyl)-2,5-diaza-bicyclo[2.2.1]heptane-2-carboxylic acid [4-(2-ethoxy-ethoxy)-phenyl]-amide]", "IC50": 28000}
    ]},
    {"biological_target": "T1, human Nav1.8 (hNav1.8) ion channel", "assay": "Inhibition of human Nav1.8 stably expressed in SH-SY-5Y cells (membrane potential dye fluorescence assay)", "format": "cell-based", "details": "hNav1.8 IC50, SH-SY-5Y hNav1.8 cells; FLIPR membrane potential dye; 10 μM pyrethroid, 250 nM TTX; test concentration range 100 μM-0.05 μM", "method": "as §1, §2, §3, §4, §5, §6", "units": {"IC50": "nM"}, "values": [
      {"smiles": "CC(c1ccc(Cl)cc1Cl)N1CC2CC1CN2C(=O)Cc1ccc(Oc2ccc(F)cc2)cc1", "note": "(centres unmarked) [Example 155, 1-{5-[1-(2,4-Dichloro-phenyl)-ethyl]-2,5-diaza-bicyclo[2.2.1]hept-2-yl}-2-[4-(4-fluoro-phenoxy)-phenyl]-ethanone]", "IC50": 18200},
      {"smiles": "Cc1ccccc1C(C)N1CC2CC1CN2C(=O)Cc1ccc(Oc2ccccc2)cc1", "note": "(centres unmarked) [Example 36, 2-(4-Phenoxy-phenyl)-1-[5-(1-o-tolyl-ethyl)-2,5-diaza-bicyclo[2.2.1]hept-2-yl]-ethanone]", "IC50": 810},
      {"smiles": "CC(c1ccccc1Cl)N1CC2CC1CN2C(=O)Cc1ccc(Oc2ccc(F)cc2)cc1", "note": "(centres unmarked) [Example 136, 1-{5-[1-(2-Chloro-phenyl)-ethyl]-2,5-diaza-bicyclo[2.2.1]hept-2-yl}-2-[4-(4-fluoro-phenoxy)-phenyl]-ethanone]", "IC50": 2410},
      {"smiles": "Cc1ccccc1C(C)N1CC2CC1CN2C(=O)Cc1ccc(Oc2cccc(F)c2)cc1", "note": "(centres unmarked) [Example 171, 2-[4-(3-Fluoro-phenoxy)-phenyl]-1-[5-(1-o-tolyl-ethyl)-2,5-diaza-bicyclo[2.2.1]hept-2-yl]-ethanone]", "IC50": 670},
      {"smiles": "O=C(Cc1ccc(Oc2ccccc2)cc1)N1CC2CC1CN2C1Cc2ccc(F)cc2C1", "note": "(centres unmarked) [Example 134, 1-[5-(5-Fluoro-indan-2-yl)-2,5-diaza-bicyclo[2.2.1]hept-2-yl]-2-(4-phenoxy-phenyl)-ethanone]", "IC50": 1600},
      {"smiles": "Cc1ccccc1C(C)N1CC2CC1CN2C(=O)Nc1ccc(Oc2ccc(F)cc2)cc1", "note": "(single isomer, unassigned) [Example 29, 5-(1-o-Tolyl-ethyl)-2,5-diaza-bicyclo[2.2.1]heptane-2-carboxylic acid [4-(4-fluoro-phenoxy)-phenyl]-amide]", "IC50": 340},
      {"smiles": "CC(c1ccccc1Br)N1CC2CC1CN2C(=O)Cc1ccc(Oc2ccc(F)cc2)cc1", "note": "(centres unmarked) [Example 153, 1-{5-[1-(2-Bromo-phenyl)-ethyl]-2,5-diaza-bicyclo[2.2.1]hept-2-yl}-2-[4-(4-fluoro-phenoxy)-phenyl]-ethanone]", "IC50": 3330},
      {"smiles": "O=C(Cc1ccc(Oc2ccc(F)cc2)cc1)N1CC2CC1CN2C1CCc2ccccc2C1", "note": "(centres unmarked) [Example 142, 2-[4-(4-Fluoro-phenoxy)-phenyl]-1-[5-(1,2,3,4-tetrahydro-naphthalen-2-yl)-2,5-diaza-bicyclo[2.2.1]hept-2-yl]-ethanone]", "IC50": 280}
    ]}
  ]
}
